Values joined by “and” are separate entries in the source; they are usually repeats but may differ in a detail not shown here. Equal values may be shown once.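 Grown in 96-well plates, cells were treated for 48 hours with each compound at five concentrations. Insufficient inhibition: endpoint recorded as highest concentration tested. At the GI50, growth is halved. TGI: total growth inhibition.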
Experiments:
Experiment in all cases: growth of human tumour cells (NCI), 48 h
[1] = system: A498 renal
[2] = system: BT-549 breast
[3] = system: LOX IMVI melanoma
[4] = system: MCF7 breast
[5] = system: MDA-MB-435
[6] = system: NCI-H23 lung
[7] = system: NCI/ADR-RES ovarian
[8] = system: RPMI-8226 leukemia
[9] = system: UACC-257 melanoma
[10] = system: UO-31 renal

Structure (SMILES) | TGI [1] | TGI [2] | TGI [3] | TGI [4] | TGI [5] | TGI [6] | TGI [7] | TGI [8] | TGI [9] | TGI [10] | GI50 [1] [µM] | GI50 [2] [µM] | GI50 [3] [µM] | GI50 [4] [µM] | GI50 [5] [µM] | GI50 [6] [µM] | GI50 [7] [µM] | GI50 [8] [µM] | GI50 [9] [µM] | GI50 [10] [µM]
O=C(NNC(=O)c1ccncc1)c1ccncc1 | > 100 µM | > 100 µM | > 100 µM | > 100 µM | > 100 µM | > 100 µM | > 100 µM | > 100 µM | > 100 µM | > 100 µM | – | – | – | – | – | – | – | – | – | –
COc1c(CNC(=O)CCl)cc2[nH]c(C)cc2c1CNC(=O)CCl | 19.1 µM | 35.2 µM | 31.8 µM | 20.9 µM | 36.4 µM | 31.3 µM | > 100 µM | 52.8 µM | 36.5 µM | 56.7 µM | 4.29 | 17 | 3.17 | 2.81 | 5.2 | 7.14 | 56.1 | 5.17 | 6.8 | 15.7
COc1ccc(-c2nn(-c3cccc(NC(=O)Nc4cc(C(F)(F)F)cc(C(F)(F)F)c4)c3)cc2-c2ccncc2)cc1Cl | 3.17 µM | 4.59 µM | 5.64 µM | 5.98 µM | 3.12 µM | 8.22 µM | 13.3 µM | 2.68 µM | 3.74 µM | 7.32 µM | 0.507 | 1.35 | 1.51 | 1.01 | 0.959 | 1.41 | 1.25 | 0.54 | 1.07 | 0.799
O=C1c2ccccc2-c2c1c1ccccc1c(=O)n2CCCN1CCN(CCCn2c3c(c4ccccc4c2=O)C(=O)c2ccccc2-3)CC1 | > 100 µM | > 100 µM | > 100 µM | > 100 µM | > 100 µM | > 83.8 µM | > 100 µM | > 100 µM | > 100 µM | > 100 µM | > 55.3 | > 75.2 | > 88.3 | > 100 | > 100 | 34.5 | > 100 | > 52.2 | > 100 | > 45.7
COC(=O)Nc1nc2cc3c(cc2s1)OCCO3 | > 50 µM | > 50 µM | > 50 µM | > 50 µM | > 50 µM | > 50 µM | > 50 µM | > 50 µM | > 50 µM | > 50 µM | > 50 | > 50 | > 50 | > 50 | > 50 | > 50 | > 50 | > 50 | > 50 | > 50
C=C(C)[C@@H]1CCC2=C[C@@H](OC2=O)[C@@H](C(=C)C)C(=O)/C=C(/C)C(=O)C1 | 69.6 µM | > 100 µM | > 100 µM | > 100 µM | > 100 µM | 60.4 µM | > 100 µM | 17.1 µM | > 100 µM | > 100 µM | 26.7 | 44.8 | > 100 | 35.3 | 38.8 | 22.6 | 37 | 1.76 | 58.3 | 42.2
CC(=O)OC(C)(C)N=Nc1ccc(Br)cc1 | > 100 µM | > 100 µM | 33.7 µM | > 100 µM | > 100 µM | > 100 µM | 76.7 µM | 36.2 µM | 66.2 µM | 15.9 µM | – | – | – | – | – | – | – | – | – | –
COc1cccc(C2C3=C(COC3=O)N(CCO)c3cc4c(cc32)OCCO4)c1 (stereo not drawn) | 0.276 µM | > 10.9 µM | > 50 µM | > 50 µM | 0.0767 µM | > 50 µM | 0.727 µM | – | > 50 µM | > 15.6 µM | 0.0264 | 0.255 | 0.288 | 0.0396 | 0.0179 | 0.15 | 0.137 | 0.0564 | 0.0467 | 0.268
COc1ccc(C2=C(c3cc(OC)c(OC)c(OC)c3)C(=O)CC2)cc1 | 0.429 µM | > 22.7 µM | > 100 µM | > 100 µM | 0.12 µM | > 100 µM | > 100 µM | 7 µM | > 100 µM | > 100 µM | 0.0403 | 0.919 | 0.441 | 0.0585 | 0.0291 | 0.313 | 0.0704 | 0.255 | – | 3.75
CN(C)CCCNc1nccc(-c2c(-c3ccc(F)cc3)nn3cc(C(F)(F)F)ccc23)n1 | > 25 µM | > 25 µM | 15.2 µM | > 18.2 µM | 15.2 µM | > 25 µM | > 25 µM | > 25 µM | 8.42 µM | > 25 µM | 6.53 | > 23.4 | 5.06 | 7.77 | 5.46 | > 25 | 8.48 | 10.2 | 4.22 | 2.91
C[C@H]1CC[C@@H]2[C@@H](C)[C@H]3[C@H](C[C@H]4[C@@H]5CC=C6C[C@@H](O)CC[C@]6(C)[C@H]5C[C@H](O)[C@]34C)N2C1 | > 100 µM | > 100 µM | > 100 µM | > 100 µM | > 100 µM | > 100 µM | > 100 µM | > 100 µM | > 100 µM | > 100 µM | – | – | – | – | – | – | – | – | – | –
CC1=C(/C=C/C(C)=C/C=C/C(C)=C/C(=O)Nc2ccc(O)cc2)C(C)(C)CCC1 | 9.07 µM and 19.1 µM | 7.44 µM and 18.6 µM | 2.26 µM and 4.76 µM | 9.59 µM and 12.9 µM | 5.99 µM and 18.7 µM | 5.41 µM and 5.3 µM | 7.07 µM and 18.4 µM | 8.9 µM and 9.14 µM | 17.4 µM and 24 µM | 2.57 µM and 11.6 µM | 1.96 | 0.826 | 0.588 | 1.4 | 1.9 | 1.83 | 2.29 | 1.09 | 4.55 | 1.17
